The subject of test [1] is Stapylococcus aureus KB210 (ATCC6538p). Description: Antimicrobial action, paper disc method. The note with it: 5 μg/disc, disc diameter 6 mm, 37° C., 24 hours. The test is classed as cell-based.
Test [2] deals with Bacillus subtilis KB211 (PCI 219). Description: Antimicrobial action, paper disc method. The test is classed as cell-based. The note with it: 5 μg/disc, disc diameter 6 mm, 37° C., 24 hours.
Test [3] relates to methicillin resistant Staphylococcus aureus K24. Kind of test: Enhancing effect for activity of imipenem by paper disk method. The note with it: for diameter of inhibition zone in the presence of imipenem / diameter of inhibition zone, stemphone alone: 5 μg disc, 37° C., 20 hours; for diameter of inhibition zone in the presence of imipenem: MHA medium with imipenem 10 μg/ml; for diameter of inhibition zone, stemphone alone: MHA medium without imipenem.

Test [4] relates to Acholeplasma laidlawii KB174. Description: Antimicrobial action, paper disc method. The test is classed as cell-based. The note with it: 5 μg/disc, disc diameter 6 mm, 37° C., 24 hours.
Test [5] has as its system Micrococcus luteus KB212 (ATCC9341). Description: Antimicrobial action, paper disc method. The test is classed as cell-based. The note with it: 5 μg/disc, disc diameter 6 mm, 37° C., 24 hours.
Test [6] relates to MRSA. Description: Enhancing activity against various antimicrobial agents by broth microdilution method (MIC). It is filed as cell-based, Staphylococcus aureus. The note with it: for Ratio (−/+stemphone C) of MIC: MIC alone / MIC with stemphone C 16 μg/ml, fold enhancement; for MIC: Staphylococcus aureus, MRSA, read-out: MIC, antibacterial agent alone (−); for MIC, +stemphone C: in combination with stemphone C 16 μg/ml.

The mark [7] stands for this setting: without stemphone C, 37° C., 20 hours.

The values below come from US7794991B2, “Stemphones and production thereof” (The Kitasato Institute, priority 2005, dated 2010).

For orientation: zone of inhibition means the extent of the growth-free halo in a diffusion test. Read a low zone of inhibition as little suppression of growth. In general, MIC refers to the lowest concentration that inhibits growth of the organism.

Each structure is given as a SMILES string. Like-named read-outs stand apart in the source and are kept apart here.

For `C/C=C(\C)C(OC(C)=O)C(C)C1=CC(=O)C2=C(OC3(C)CCC4OC(C(C)(C)O)CC(O)C4(C)C3C2O)C1=O` (centres unmarked) [Stemphone B], the zone of inhibition at 5 µg/disc was determined as 8 mm in test [1], 10 mm in test [2], 10 mm in test [4] and 14 mm in test [5]. Also, in test [3], the “diameter of inhibition zone in the presence of imipenem” value is 15 mm. Moreover, the “diameter of inhibition zone, stemphone alone” value in test [3] is “not observed”.

Consider `[H]/N=C(/N)N[C@H]1[C@H](O)[C@@H](O)[C@H](O[C@@H]2O[C@@H](C)[C@](O)(C=O)[C@H]2O[C@@H]2O[C@@H](CO)[C@H](O)[C@@H](O)[C@@H]2NC)[C@@H](N/C(N)=N\[H])[C@@H]1O` [streptomycin], for which the “Ratio (−/+stemphone C) of MIC” value in test [6] is reported as 4. Also, in test [6] (setting [7]), the MIC is 2 µg/mL. Also, the “MIC, +stemphone C” value in test [6] (37° C., 20 hours) was 0.5 µg/mL.

For `Cc1nnc(SCC2=C(C(=O)O)N3C(=O)[C@@H](NC(=O)Cn4cnnn4)[C@H]3SC2)s1` [cefazolin], the “Ratio (−/+stemphone C) of MIC” value in test [6] was found to be 16. The MIC in test [6] (setting [7]) is 64 µg/mL. In test [6] (37° C., 20 hours), the “MIC, +stemphone C” value is 4 µg/mL.

In the case of `CN[C@H](CC(C)C)C(=O)N[C@H]1C(=O)N[C@@H](CC(N)=O)C(=O)N[C@H]2C(=O)N[C@H]3C(=O)N[C@H](C(=O)N[C@H](C(=O)O)c4cc(O)cc(O)c4-c4cc3ccc4O)[C@H](O)c3ccc(c(Cl)c3)Oc3cc2cc(c3O[C@@H]2O[C@H](CO)[C@@H](O)[C@H](O)[C@H]2O[C@H]2C[C@](C)(N)[C@H](O)[C@H](C)O2)Oc2ccc(cc2Cl)[C@H]1O` [vancomycin], in test [6], the “Ratio (−/+stemphone C) of MIC” value was determined as 1. Further, the MIC in test [6] (20 h) amounted to 0.5 µg/mL. Besides, the “MIC, +stemphone C” value in test [6] (37° C., 20 hours) turned out to be 0.5 µg/mL.

In the case of `CN(C)[C@@H]1C(O)=C(C(N)=O)C(=O)[C@@]2(O)C(O)=C3C(=O)c4c(O)cccc4[C@@](C)(O)[C@H]3C[C@@H]12` [tetracycline], the “Ratio (−/+stemphone C) of MIC” value in test [6] was found to be 1. Further, the minimum inhibitory concentration (MIC) in test [6] (setting [7]) came to 32 µg/mL. Also, the “MIC, +stemphone C” value in test [6] (37° C., 20 hours) was 32 µg/mL.

On to `Cc1onc(-c2ccccc2Cl)c1C(=O)N[C@@H]1C(=O)N2[C@@H]1SC(C)(C)[C@@H]2C(=O)O` [cloxacillin], for which the “Ratio (−/+stemphone C) of MIC” value in test [6] was found to be 512. The MIC in test [6] (setting [7]) amounted to 512 µg/mL. Moreover, in test [6] (37° C., 20 hours), the “MIC, +stemphone C” value was determined as 1 µg/mL.

Consider `C[C@@H](O)[C@H]1C(=O)N2C(C(=O)O)=C(SCCN=CN)C[C@H]12` [imipenem], for which the “Ratio (−/+stemphone C) of MIC” value in test [6] was determined as 512. Also, in test [6] (setting [7]), the MIC stood at 16 µg/mL. For the same compound, in test [6] (37° C., 20 hours), the “MIC, +stemphone C” value was found to be 0.03 µg/mL.

For the compound `C/C=C(\C)C(OC(C)=O)C(C)C1=CC(=O)C2=C(OC3(C)CCC4OC(C(C)(C)O)CCC4(C)C3C2)C1=O` (centres unmarked) [Stemphone C], in test [6] (final concentration 16 μg/ml), the “effect of stemphone C itself on growth of test organism” value was “did not affect growth”. For the same compound, the zone of inhibition at 5 µg/disc in test [1] turned out to be 8 mm; in test [2] it was 9 mm; in test [4] it was 9 mm; in test [5] it was 14 mm. For the same compound, the “diameter of inhibition zone in the presence of imipenem” value in test [3] was found to be 20 mm. Also, the “diameter of inhibition zone, stemphone alone” value in test [3] is reported as “not observed”. Further, the “enhancing activity for imipenem” value in test [3] (paper disk method, in words) was “strong enhancing activity”.
